The record followed here is ChEMBL document CHEMBL4219219, “The synthesis and antistaphylococcal activity of N-sulfonaminoethyloxime derivatives of dehydroabietic acid” (Bioorg Med Chem Lett, 2018).

One data set deals with HEK-293T. The data set can be described thus: Cytotoxicity against HEK293T cells assessed as decrease in cell survival at 20 times MIC after 24 hrs by MTT assay. It is filed as cell-based. As to conditions: human. A general note: Tetrazolium assays rely on reduction of a dye to a coloured formazan, in cell work by metabolically active cells.
A further data set relates to Escherichia coli. The data set can be described thus: Antibacterial activity against Escherichia coli AB1157 at 50 ug/ml after 18 hrs by two-fold serial dilution method. It is filed as functional, organism-based.
In data set [1] the test system is Staphylococcus aureus. In words: Antistaphylococcal activity against Staphylococcus aureus Newman after 18 hrs by two-fold serial dilution method. In kind it is functional.
The subject of the next data set is NCI-H23. In words: Cytotoxicity against human H23 cells assessed as decrease in cell survival at 20 times MIC after 24 hrs by MTT assay. The note with it: nci-h23, 24 h. It is filed as cell-based.
The test system of data set [2] is Staphylococcus aureus. The data set can be described thus: Antistaphylococcal activity against erythromycin-resistant Staphylococcus aureus NRS-70 treated with increasing concentration of test compound everyday for 12 hrs measured after 20 days by two-fold serial dilution method. It is filed as functional.
A short description of data set [3]: Metabolic stability in Sprague-Dawley rat plasma after 0.5 to 24 hrs by LC-MS analysis. In kind it is ADME, cell-free.
The test system of the next data set is WiDr. In words: Cytotoxicity against human WiDr cells assessed as decrease in cell survival at 20 times MIC after 24 hrs by MTT assay. In kind it is cell-based.
Data set [4] deals with Staphylococcus aureus. In words: Antistaphylococcal activity against oxacillin/tetracycline-resistant Staphylococcus aureus NRS-100 after 18 hrs by two-fold serial dilution method. In kind it is functional. The note with it: NRS-100, 18 h.
Data set [5] has as its system Staphylococcus aureus. The data set can be described thus: Antistaphylococcal activity against gentamicin-resistant Staphylococcus aureus NRS-108 after 18 hrs by two-fold serial dilution method. In kind it is functional. The note with it: NRS-108, 18 h.
The subject of data set [6] is Staphylococcus aureus. In words: Antistaphylococcal activity against erythromycin-resistant Staphylococcus aureus NRS-70 after 18 hrs by two-fold serial dilution method. It is filed as functional. The note with it: NRS-70, 18 h.
For data set [7], the system named is Staphylococcus aureus. The data set can be described thus: Antistaphylococcal activity against aminoglycosides/tetracycline-resistant Staphylococcus aureus NRS-1 after 18 hrs by two-fold serial dilution method. It is filed as functional. The note with it: NRS-1, 18 h.
For data set [8], the system named is Staphylococcus aureus. The data set can be described thus: Antistaphylococcal activity against Staphylococcus aureus Newman treated with increasing concentration of test compound everyday for 12 hrs measured after 20 days by two-fold serial dilution method. In kind it is functional.
The subject of another data set is SCLC-21H. In words: Cytotoxicity against human SCLC-21H cells assessed as decrease in cell survival at 20 times MIC after 24 hrs by MTT assay. In kind it is cell-based.
The test system of another data set is J82. In words: Cytotoxicity against human J82 cells assessed as decrease in cell survival at 20 times MIC after 24 hrs by MTT assay. In kind it is cell-based. As to conditions: j82, 24 h.
Data set [9] has as its system Staphylococcus aureus. In words: Metabolic stability in Staphylococcus aureus Newman at MIC after 12 hrs by LC-MS analysis. In kind it is ADME, organism-based. The note with it: in vivo.
The next data set has as its system HGC-27. In words: Cytotoxicity against human HGC27 cells assessed as decrease in cell survival at 20 times MIC after 24 hrs by MTT assay. As to conditions: hgc-27, 24 h. It is filed as cell-based.
Data set [10] has as its system Staphylococcus aureus. In words: Antistaphylococcal activity against linezolid-resistant Staphylococcus aureus NRS-271 containing phage type E-MRSA 15 after 18 hrs by two-fold serial dilution method. As to conditions: NRS-271, 18 h. In kind it is functional.

Each structure is given as a SMILES string. Converted amounts (≈) assume the structure as drawn. The source made the active and inactive calls. The rule behind the calls is not given here.

Turning to `Cc1noc(C)c1S(=O)(=O)NCCO/N=C1\C[C@H]2[C@](C)(C(=O)O)CCC[C@]2(C)c2cc(Br)c(C(C)C)cc21`, the Activity result in the data set on HEK-293T, in the data set on NCI-H23, with WiDr, with SCLC-21H, with J82 and in the data set on HGC-27 was “Non-Toxic” each time. Moreover, in the data set on Escherichia coli, the result was inactive. Moreover, the MIC was 1.56 to 3.13 µg/mL (≈ 2.55 to 5.13 µM) against Staphylococcus aureus [1]; 6.25 to 12.5 µg/mL (≈ 10.2 to 20.5 µM) in the data set on Staphylococcus aureus [2]; 3.13 to 6.25 µg/mL (≈ 5.13 to 10.2 µM) against Staphylococcus aureus [4]; 1.56 to 3.13 µg/mL (≈ 2.55 to 5.13 µM) in the data set with Staphylococcus aureus [5]; 1.56 to 3.13 µg/mL (≈ 2.55 to 5.13 µM) in the data set on Staphylococcus aureus [6]; 1.56 to 3.13 µg/mL (≈ 2.55 to 5.13 µM) against Staphylococcus aureus [7]. Also, the MIC is 6.25 to 12.5 µg/mL (≈ 10.2 to 20.5 µM) in the data set with Staphylococcus aureus [8] and 1.56 to 3.13 µg/mL (≈ 2.55 to 5.13 µM) in the data set on Staphylococcus aureus [10]. For the same compound, the Stability entry (in [3]; in the data set with Staphylococcus aureus [9]) was “Stable” in each case.
